The target of test [1] is T1, Alpha-1A adrenergic receptor (Rattus norvegicus, UniProt P43140).
T1 sequence (P43140 whole entry): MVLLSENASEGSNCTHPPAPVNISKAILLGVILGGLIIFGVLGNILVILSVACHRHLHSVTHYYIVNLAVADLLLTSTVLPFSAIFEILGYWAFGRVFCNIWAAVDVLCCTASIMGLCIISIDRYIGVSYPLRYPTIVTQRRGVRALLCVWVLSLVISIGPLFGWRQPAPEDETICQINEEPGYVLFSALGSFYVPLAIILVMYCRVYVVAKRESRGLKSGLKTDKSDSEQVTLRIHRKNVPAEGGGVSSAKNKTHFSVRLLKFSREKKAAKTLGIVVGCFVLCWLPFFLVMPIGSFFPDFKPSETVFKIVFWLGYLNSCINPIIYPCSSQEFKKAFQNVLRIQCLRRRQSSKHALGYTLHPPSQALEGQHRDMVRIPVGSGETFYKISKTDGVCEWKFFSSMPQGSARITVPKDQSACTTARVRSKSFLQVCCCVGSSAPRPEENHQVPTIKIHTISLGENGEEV
The test can be described thus: DRUGMATRIX: Alpha-1A adrenergic receptor radioligand binding (ligand: prazosin). The test is classed as cell membranes, Wistar, Submaxillary gland, Membrane. Conditions: Not Active = under 50% inhibition at 10 µM.

A short description of test [2]: DRUGMATRIX: Serotonin (5-Hydroxytryptamine) 5-HT3 radioligand binding (ligand: [3H] GR-65630). The test is classed as cell membranes, Membrane. To be noted: hek293; Not Active = under 50% inhibition at 10 µM.
The target of test [3] is C-C chemokine receptor type 5 (Homo sapiens, UniProt P51681). The test is classed as cell membranes, Membrane. To be noted: hek293. Further: in other assays of this panel Not Active means under 50% inhibition at 10 µM.
Sequence of C-C chemokine receptor type 5 (P51681 whole entry): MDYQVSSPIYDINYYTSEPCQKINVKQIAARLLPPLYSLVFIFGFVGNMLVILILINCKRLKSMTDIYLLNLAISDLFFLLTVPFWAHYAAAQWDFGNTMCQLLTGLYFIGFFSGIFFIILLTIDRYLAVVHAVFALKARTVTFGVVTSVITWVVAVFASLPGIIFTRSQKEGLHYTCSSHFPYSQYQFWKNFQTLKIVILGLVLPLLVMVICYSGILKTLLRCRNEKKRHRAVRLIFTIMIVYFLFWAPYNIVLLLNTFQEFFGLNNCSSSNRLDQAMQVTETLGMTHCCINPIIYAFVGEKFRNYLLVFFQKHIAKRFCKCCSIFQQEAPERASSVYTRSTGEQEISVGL
Test [4] is described as follows: DRUGMATRIX: Phosphodiesterase PDE4 enzyme inhibition (substrate: [3H]cAMP + cAMP). Conditions: u-937; Not Active = under 50% inhibition at 10 µM.
Test [5] addresses T2, Angiotensin-converting enzyme (Oryctolagus cuniculus, UniProt P12822).
T2 sequence (P12822 whole entry): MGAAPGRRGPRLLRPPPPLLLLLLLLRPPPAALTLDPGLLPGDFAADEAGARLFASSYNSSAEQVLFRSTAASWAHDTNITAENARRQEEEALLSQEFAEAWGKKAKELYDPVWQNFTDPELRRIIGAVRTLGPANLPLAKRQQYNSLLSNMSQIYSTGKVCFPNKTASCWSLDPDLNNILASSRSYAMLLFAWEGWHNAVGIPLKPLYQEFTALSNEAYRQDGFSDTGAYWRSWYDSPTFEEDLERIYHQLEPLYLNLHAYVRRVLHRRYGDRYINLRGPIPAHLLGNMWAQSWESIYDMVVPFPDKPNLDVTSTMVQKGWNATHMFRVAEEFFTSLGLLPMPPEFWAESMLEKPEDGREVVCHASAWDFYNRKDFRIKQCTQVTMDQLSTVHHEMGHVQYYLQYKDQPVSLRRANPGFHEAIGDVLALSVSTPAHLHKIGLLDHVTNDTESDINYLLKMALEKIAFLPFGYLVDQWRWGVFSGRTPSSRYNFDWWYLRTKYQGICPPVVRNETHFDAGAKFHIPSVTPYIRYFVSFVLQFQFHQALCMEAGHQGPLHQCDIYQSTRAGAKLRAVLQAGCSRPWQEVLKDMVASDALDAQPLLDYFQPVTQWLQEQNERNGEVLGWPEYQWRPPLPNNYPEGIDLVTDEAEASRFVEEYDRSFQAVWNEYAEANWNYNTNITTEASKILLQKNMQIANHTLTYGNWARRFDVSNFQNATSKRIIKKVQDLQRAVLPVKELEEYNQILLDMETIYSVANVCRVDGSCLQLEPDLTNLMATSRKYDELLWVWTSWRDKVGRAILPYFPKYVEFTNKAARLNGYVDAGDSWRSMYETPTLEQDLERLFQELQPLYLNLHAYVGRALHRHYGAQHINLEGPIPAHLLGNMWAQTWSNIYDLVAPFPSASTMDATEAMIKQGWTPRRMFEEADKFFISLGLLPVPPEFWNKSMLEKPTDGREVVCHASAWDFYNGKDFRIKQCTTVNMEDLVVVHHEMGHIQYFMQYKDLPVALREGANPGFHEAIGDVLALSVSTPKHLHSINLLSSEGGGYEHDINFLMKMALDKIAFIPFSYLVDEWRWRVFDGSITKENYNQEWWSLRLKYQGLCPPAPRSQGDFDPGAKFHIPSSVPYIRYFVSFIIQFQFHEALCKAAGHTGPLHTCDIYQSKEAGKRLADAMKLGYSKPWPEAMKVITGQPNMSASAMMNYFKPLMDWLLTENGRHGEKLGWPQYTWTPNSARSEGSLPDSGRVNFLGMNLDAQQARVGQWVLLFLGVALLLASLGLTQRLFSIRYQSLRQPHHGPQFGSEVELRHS
The test is classed as tissue-based, Lung.

Test [6] has as its target Mitogen-activated protein kinase 3 (Homo sapiens, UniProt P27361). The test can be described thus: DRUGMATRIX: Protein Serine/Threonine Kinase, ERK1 enzyme inhibition (substrate: Myelin Basic Protein). On the set-up: species or system Escherichia coli. Conditions: Not Active = under 50% inhibition at 10 µM.
The target in test [7] is T3, Adenosine receptor A1 (Homo sapiens, UniProt P30542).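 Further: radioligand binding assay at the adenosine A1 receptor, with DPCPX serving as the labelled ligand; in other assays of this panel Not Active means under 50% inhibition at 10 µM.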
T3 sequence (P30542 whole entry): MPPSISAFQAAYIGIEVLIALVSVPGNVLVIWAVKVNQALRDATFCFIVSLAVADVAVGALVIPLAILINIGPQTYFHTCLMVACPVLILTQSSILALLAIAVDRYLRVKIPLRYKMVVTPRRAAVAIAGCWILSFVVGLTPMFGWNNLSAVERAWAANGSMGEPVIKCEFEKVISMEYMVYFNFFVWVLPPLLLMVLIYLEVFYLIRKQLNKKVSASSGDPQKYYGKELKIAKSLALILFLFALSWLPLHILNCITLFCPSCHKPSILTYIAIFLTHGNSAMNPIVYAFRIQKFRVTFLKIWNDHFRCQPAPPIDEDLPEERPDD
Type of test: cell membranes, CHO, Membrane. Conditions: cho.

Sequence of Mitogen-activated protein kinase 3 (P27361 whole entry): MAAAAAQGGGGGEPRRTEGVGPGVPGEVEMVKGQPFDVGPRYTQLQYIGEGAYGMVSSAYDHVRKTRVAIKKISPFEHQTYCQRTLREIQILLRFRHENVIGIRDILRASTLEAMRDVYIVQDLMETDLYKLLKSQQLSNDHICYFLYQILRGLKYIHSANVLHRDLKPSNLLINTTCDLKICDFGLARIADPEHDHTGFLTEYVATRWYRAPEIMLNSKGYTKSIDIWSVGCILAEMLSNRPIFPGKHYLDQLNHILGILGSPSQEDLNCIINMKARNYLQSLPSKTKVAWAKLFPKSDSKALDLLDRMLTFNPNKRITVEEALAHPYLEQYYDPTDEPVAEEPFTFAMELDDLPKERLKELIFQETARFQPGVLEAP

Turning to `COc1ccc(CN2CCNCC2)c(OC)c1OC` [TRIMETAZIDINE], the IC50 entry in test [1], in test [2], in test [3], in test [4], in test [5] and in test [6] was “Not Active” in each case. Moreover, the IC50 result in test [7] is on record as “Not Active”. Also, the Ki entry in test [2] and in test [4] was “Not Active” in each case.

As to `CC(=O)O[C@H]1C[C@@H]2CC[C@@H]3[C@H](CC[C@@]4(C)[C@H]3C[C@H]([N+]3(C)CCCCC3)[C@@H]4OC(C)=O)[C@@]2(C)C[C@@H]1N1CCCCC1.[Br-]` [VECURONIUM BROMIDE], the IC50 result in test [1], in test [2], in test [3], in test [4], in test [5] and in test [6] was “Not Active” each time. The IC50 result in test [7] was “Not Active”. The Ki result in test [2] and in test [4] was “Not Active” throughout.

`COc1cc(C(=O)NS(=O)(=O)c2ccccc2C)ccc1Cc1cn(C)c2ccc(NC(=O)OC3CCCC3)cc12` [ZAFIRLUKAST]: the IC50 result was “Not Active” in test [1]; “Not Active” in test [2]; “Not Active” in test [3]; “Not Active” in test [4]; “Not Active” in test [5]; 4380 nM in test [6] (read-out: IC50). Further, the IC50 entry in test [7] was “Not Active”. The Ki result in test [2] and in test [4] was “Not Active” throughout.

With `Cc1cn([C@H]2C[C@H](N=[N+]=[N-])[C@@H](CO)O2)c(=O)[nH]c1=O` [ZIDOVUDINE], the IC50 result in test [1], in test [2], in test [3], in test [4], in test [5] and in test [6] was “Not Active” throughout. The IC50 entry in test [7] is listed as “Not Active”. Also, the Ki result in test [2] and in test [4] was “Not Active” throughout.

For STANNOUS FLUORIDE, the IC50 result in test [1], in test [2], in test [3], in test [4], in test [5] and in test [6] was “Not Active” each time. For the same compound, the IC50 result in test [7] is “Not Active”. The Ki result in test [1], in test [2], in test [3], in test [4], in test [5] and in test [6] was “Not Active” throughout. Besides, the Ki entry in test [7] is on record as “Not Active”.

As for THIMEROSAL, the IC50 result was “Not Active” in test [1]; “Not Active” in test [2]; “Not Active” in test [3]; “Not Active” in test [4]; “Not Active” in test [5]; 774 nM in test [6] (read-out: IC50). Moreover, the IC50 result in test [7] was “Not Active”. The Ki entry in test [1], in test [2], in test [3], in test [4], in test [5] and in test [7] was “Not Active” in each case.

The term IC50 denotes the concentration needed to halve the response being measured.
